Test results from patent publication US20250032486A1, “COMBINATION OF 5-AMINO-2,3-DIHYDRO-1,4-PHTALAZINEDIONE AND A 6'-METHOXYCINCHONAN-9-OL FOR USE IN THE TREATMENT OF CORONAVIRAL INFECTIONS” (METROPHARM AG, priority 2021, published 2025).
Counter-ions that a name gives are not always drawn. Like-named read-outs stand apart in the source and are kept apart here.

How the values were obtained:
SARS-CoV-2 [1] = format: cell-based
SARS-CoV-2 [2] = details: from WO 2021/249667 and WO 2021/219244; cited from earlier work
3-nitrotyrosine = details: ex vivo lung, cigarette smoke; cited from earlier work

For Nc1cccc2c(=O)[nH][nH]c(=O)c12.[Na] [5-amino-2,3-dihydro-1,4-phthalazinedione sodium salt], the “amount of SARS-CoV-2 RNA copies (qRT-PCR-amplified RdRp, in relation to untreated cells)” value (“amount of SARS-CoV-2 RNA copies” below) (SARS-CoV-2 [1]) is listed as “dose-dependent reduction”, the “inhibition of the replication of SARS-CoV-2 in vitro” value (“inhibition” for short) (SARS-CoV-2 [2]) is listed as “dose-dependently inhibit” and the “reduction of 3-nitrotyrosine” value (3-nitrotyrosine) is listed as “nearly complete reduction”.

For C=C[C@H]1CN2CC[C@H]1C[C@@H]2[C@@H](O)c1ccnc2ccc(OC)cc12 [quinidine, (+)-(9S)-6′-methoxycinchonan-9-ol], the “inhibition” value (SARS-CoV-2 [2]) is given as “Such an effect was also described”.

For C=C[C@H]1C[N@@]2CC[C@H]1C[C@@H]2[C@@H](O)c1ccnc2ccc(OC)cc12 [quinidine sulfate], the “amount of SARS-CoV-2 RNA copies” value (SARS-CoV-2 [1]; Example 3, Calu-3 cells, 3 days, luminol sodium salt 500/250/125 μM, quinidine sulfate 10/1/0.1 μM, alone and combined, n=2) was “dose-dependent reduction”.

In the case of C=C[C@H]1CN2CC[C@H]1C[C@H]2[C@H](O)c1ccnc2ccc(OC)cc12 [quinine, (−)-(8a,9R)-6′-methoxycinchonan-9-ol], the “inhibition” value (SARS-CoV-2 [2]) is listed as “Such an effect was also described”.

In the case of C=C[C@H]1C[N@@]2CC[C@H]1C[C@H]2[C@H](O)c1ccnc2ccc(OC)cc12 [quinine sulfate], the “amount of SARS-CoV-2 RNA copies” value (SARS-CoV-2 [1]; Example 1, Calu-3 cells, 3 days, luminol sodium salt 500/250/125 μM, quinine sulfate 10/1/0.1 μM, alone and combined, n=3) is reported as “dose-dependent reduction”.
